Values of other authors as cited in patent publication US20180221315A1, “COMBINATION THERAPY USING ACAMPROSATE AND D-CYCLOSERINE” (Confluence Pharmaceuticals, LLC, priority 2015, published 2018).

Legend:
[1] = test system: extinction of conditioned fear, maze tasks, visual recognition memory
[2] = test system: cognitive impairment produced by hippocampal lesions, anticholinergic agents, and early social deprivation; conditions: single dose
[3] = molecular target: NR1 NMDA receptor subunit (strychnine-insensitive glycine binding site) (Homo sapiens, UniProt Q05586); conditions: partial agonist at glycine site of NMDA receptor; relative to glycine alone

## N[C@@H]1CONC1=O [DCS, D-4-amino-3-isoxazolidone]
[1]
  effect on learning and memory in healthy animals: enhanced extinction of conditioned fear, performance on maze tasks, and visual recognition memory
[2]
  effect on cognitive impairment in animal models: reversed cognitive impairment
[3]
  receptor activation, level of maximum stimulation during exposure to glycine alone: 40-50%
